Activity calls are given as the source filed them. The rule behind the calls is not given here.
Test system: CCRIS mutagenicity, Ames/micronucleus/aberration tests
Experiment: CCRIS mutagenicity studies
[1] = Test System: AMES SALMONELLA TYPHIMURIUM, Strain/Indicator: TA98, Metabolic Activation: NONE, Method: STANDARD PLATE
[2] = Test System: AMES SALMONELLA TYPHIMURIUM, Strain/Indicator: TA100, Metabolic Activation: NONE, Method: STANDARD PLATE
[3] = Test System: AMES SALMONELLA TYPHIMURIUM, Strain/Indicator: TA98, Metabolic Activation: NONE, Method: PREINCUBATION
[4] = Test System: AMES SALMONELLA TYPHIMURIUM, Strain/Indicator: TA100, Metabolic Activation: NONE, Method: PREINCUBATION
[5] = Test System: AMES SALMONELLA TYPHIMURIUM, Strain/Indicator: TA1535, Metabolic Activation: NONE, Method: PREINCUBATION
[6] = Test System: AMES SALMONELLA TYPHIMURIUM, Strain/Indicator: TA1537, Metabolic Activation: NONE, Method: PREINCUBATION
[7] = Test System: AMES SALMONELLA TYPHIMURIUM, Strain/Indicator: TA98, Metabolic Activation: HAMSTER, LIVER, S-9, AROCLOR 1254 (10%), Method: PREINCUBATION
[8] = Test System: AMES SALMONELLA TYPHIMURIUM, Strain/Indicator: TA98, Metabolic Activation: RAT, LIVER, S-9, AROCLOR 1254 (10%), Method: PREINCUBATION
[9] = Test System: AMES SALMONELLA TYPHIMURIUM, Strain/Indicator: TA100, Metabolic Activation: HAMSTER, LIVER, S-9, AROCLOR 1254 (10%), Method: PREINCUBATION
[10] = Test System: AMES SALMONELLA TYPHIMURIUM, Strain/Indicator: TA100, Metabolic Activation: RAT, LIVER, S-9, AROCLOR 1254 (10%), Method: PREINCUBATION
[11] = Test System: AMES SALMONELLA TYPHIMURIUM, Strain/Indicator: TA1535, Metabolic Activation: HAMSTER, LIVER, S-9, AROCLOR 1254 (10%), Method: PREINCUBATION
[12] = Test System: AMES SALMONELLA TYPHIMURIUM, Strain/Indicator: TA1535, Metabolic Activation: RAT, LIVER, S-9, AROCLOR 1254 (10%), Method: PREINCUBATION

O=c1cc2ccc3cccc4ccc([nH]1)c2c34
mutagenic call [1]: active; positive | mutagenic call (Test System: AMES SALMONELLA TYPHIMURIUM, Strain/Indicator: TA98, Metabolic Activation: RAT, LIVER, S-9, AROCLOR 1254, Method: STANDARD PLATE): active; positive | mutagenic call [2]: inactive; negative | mutagenic call (Test System: AMES SALMONELLA TYPHIMURIUM, Strain/Indicator: TA100, Metabolic Activation: RAT, LIVER, S-9, AROCLOR 1254, Method: STANDARD PLATE): active; positive

C=CCc1[c-]cccc1.C=CCc1[c-]cccc1.[Pt+2].c1ccc(P(c2ccccc2)c2ccccc2)cc1.c1ccc(P(c2ccccc2)c2ccccc2)cc1
mutagenic call (Test System: AMES SALMONELLA TYPHIMURIUM, Strain/Indicator: TA92, Metabolic Activation: NONE, Method: STANDARD PLATE): inactive; negative | mutagenic call [1]: inactive; negative | mutagenic call [2]: inactive; negative | mutagenic call (Test System: AMES SALMONELLA TYPHIMURIUM, Strain/Indicator: TA2410, Metabolic Activation: NONE, Method: STANDARD PLATE): inactive; negative

OCCOCCOCCO
mutagenic call [3]: inactive; negative | mutagenic call (Test System: AMES SALMONELLA TYPHIMURIUM, Strain/Indicator: TA98, Metabolic Activation: RAT LIVER S-9, PHENOBARBITAL AND BETA-NAPHTHOFLAVONE, Method: PREINCUBATION): inactive; negative | mutagenic call [4]: inactive; negative | mutagenic call (Test System: AMES SALMONELLA TYPHIMURIUM, Strain/Indicator: TA100, Metabolic Activation: RAT LIVER S-9, PHENOBARBITAL AND BETA-NAPHTHOFLAVONE, Method: PREINCUBATION): inactive; negative | mutagenic call [5]: inactive; negative | mutagenic call (Test System: AMES SALMONELLA TYPHIMURIUM, Strain/Indicator: TA1535, Metabolic Activation: RAT LIVER S-9, PHENOBARBITAL AND BETA-NAPHTHOFLAVONE, Method: PREINCUBATION): inactive; negative | mutagenic call [6]: inactive; negative | mutagenic call (Test System: AMES SALMONELLA TYPHIMURIUM, Strain/Indicator: TA1537, Metabolic Activation: RAT LIVER S-9, PHENOBARBITAL AND BETA-NAPHTHOFLAVONE, Method: PREINCUBATION): inactive; negative | mutagenic call (Test System: AMES SALMONELLA TYPHIMURIUM, Strain/Indicator: TA1538, Metabolic Activation: NONE, Method: PREINCUBATION): inactive; negative | mutagenic call (Test System: AMES SALMONELLA TYPHIMURIUM, Strain/Indicator: TA1538, Metabolic Activation: RAT LIVER S-9, PHENOBARBITAL AND BETA-NAPHTHOFLAVONE, Method: PREINCUBATION): inactive; negative | mutagenic call (Test System: E.COLI, Strain/Indicator: WP2UVRA, Metabolic Activation: NONE, Method: PREINCUBATION): inactive; negative | mutagenic call (Test System: E.COLI, Strain/Indicator: WP2UVRA, Metabolic Activation: RAT LIVER S-9, PHENOBARBITAL AND BETA-NAPHTHOFLAVONE, Method: PREINCUBATION): inactive; negative

[Ru]
mutagenic call (End Point: In vitro chromosomal aberrations, Test System: Human lymphocytes, Metabolic Activation: None): inactive; negative. actual compound tested was cis(dichloro)tetraammonium ruthenium(iii)ch

CCN(O)CC
mutagenic call (Test System: UDS HUMAN LYMPHOCYTES, Strain/Indicator: THY INCORP (NON-S-PHASE), Metabolic Activation: NONE, Method: LIQUID SCINTILLATION COUNTING): active; positive

CN(CCCCO)N=O
mutagenic call (Test System: AMES SALMONELLA TYPHIMURIUM, Strain/Indicator: TA1535, Metabolic Activation: RAT, LIVER, S-9, KC500 OR PHENOBARBITAL, Method: LIQUID SUSPENSION): active; positive

CC(=O)Nc1cnc2ccccc2c1
mutagenic call [3]: inactive; negative | mutagenic call (Test System: AMES SALMONELLA TYPHIMURIUM, Strain/Indicator: TA98, Metabolic Activation: RAT, LIVER, S-9, KANECHLOR 500, Method: PREINCUBATION): inactive; negative | mutagenic call [4]: inactive; negative | mutagenic call (Test System: AMES SALMONELLA TYPHIMURIUM, Strain/Indicator: TA100, Metabolic Activation: RAT, LIVER, S-9, KANECHLOR 500, Method: PREINCUBATION): inactive; negative

CC(C#N)CCC#N (centres undefined)
mutagenic call (Test System: AMES SALMONELLA TYPHIMURIUM, Strain/Indicator: TA97, Metabolic Activation: HAMSTER, LIVER, S-9, AROCLOR 1254 (5, 10 OR 30%), Method: PREINCUBATION): inactive; negative | mutagenic call (Test System: AMES SALMONELLA TYPHIMURIUM, Strain/Indicator: TA97, Metabolic Activation: NONE, Method: PREINCUBATION): inactive; negative | mutagenic call (Test System: AMES SALMONELLA TYPHIMURIUM, Strain/Indicator: TA97, Metabolic Activation: RAT, LIVER, S-9, AROCLOR 1254 (5, 1O OR 30%), Method: PREINCUBATION): inactive; negative | mutagenic call [7]: inactive; negative | mutagenic call [3]: inactive; negative | mutagenic call [8]: inactive; negative | mutagenic call [9]: inactive; negative | mutagenic call [4]: inactive; negative | mutagenic call [10]: inactive; negative | mutagenic call [11]: inactive; negative | mutagenic call [5]: inactive; negative | mutagenic call [12]: inactive; negative | mutagenic call (Test System: AMES SALMONELLA TYPHIMURIUM, Strain/Indicator: TA1537, Metabolic Activation: HAMSTER, LIVER, S-9, AROCLOR 1254 (10 OR 30%), Method: PREINCUBATION): inactive; negative | mutagenic call [6]: inactive; negative | mutagenic call (Test System: AMES SALMONELLA TYPHIMURIUM, Strain/Indicator: TA1537, Metabolic Activation: RAT, LIVER, S-9, AROCLOR 1254 (10 OR 30%), Method: PREINCUBATION): inactive; negative

CCC(C)CO (centres undefined)
mutagenic call (Test System: CHINESE HAMSTER V-79, Strain/Indicator: V-79 (HPRT)/6-THIOGUANINE, Metabolic Activation: NONE, Method: STANDARD PLATE): inactive; negative | mutagenic call (Test System: CHINESE HAMSTER V-79, Strain/Indicator: V-79 (HPRT)/6-THIOGUANINE, Metabolic Activation: RAT LIVER S-9, Method: STANDARD PLATE): inactive; negative

CC1(C)[C@H](C(=O)OCc2cccc(Oc3ccccc3)c2)[C@@H]1C=C(Cl)Cl
mutagenic call (Test System: AMES SALMONELLA TYPHIMURIUM, Strain/Indicator: TA97, Metabolic Activation: NONE, Method: STANDARD PLATE): inactive; negative | mutagenic call (Test System: AMES SALMONELLA TYPHIMURIUM, Strain/Indicator: TA97, Metabolic Activation: RAT, LIVER, S-9, PHENOBARBITONE, Method: STANDARD PLATE): inactive; negative | mutagenic call [1]: inactive; negative | mutagenic call (Test System: AMES SALMONELLA TYPHIMURIUM, Strain/Indicator: TA98, Metabolic Activation: RAT, LIVER, S-9, PHENOBARBITONE, Method: STANDARD PLATE): inactive; negative | mutagenic call [2]: inactive; negative | mutagenic call (Test System: AMES SALMONELLA TYPHIMURIUM, Strain/Indicator: TA100, Metabolic Activation: RAT, LIVER, S-9, PHENOBARBITONE, Method: STANDARD PLATE): inactive; negative | mutagenic call (Test System: AMES SALMONELLA TYPHIMURIUM, Strain/Indicator: TA104, Metabolic Activation: NONE, Method: STANDARD PLATE): inactive; negative | mutagenic call (Test System: AMES SALMONELLA TYPHIMURIUM, Strain/Indicator: TA104, Metabolic Activation: RAT, LIVER, S-9, PHENOBARBITONE, Method: STANDARD PLATE): inactive; negative

CC[C@H]1CN2CCc3cc(OC)c(OC)cc3[C@@H]2C[C@@H]1C[C@H]1NCCc2cc(OC)c(OC)cc21
mutagenic call [7]: inactive; negative | mutagenic call [3]: inactive; negative | mutagenic call [8]: inactive; negative | mutagenic call [9]: inactive; negative | mutagenic call [4]: inactive; negative | mutagenic call [10]: inactive; negative | mutagenic call [11]: inactive; negative | mutagenic call [5]: inactive; negative | mutagenic call [12]: inactive; negative | mutagenic call (Test System: AMES SALMONELLA TYPHIMURIUM, Strain/Indicator: TA1537, Metabolic Activation: HAMSTER, LIVER, S-9, AROCLOR 1254 (10%), Method: PREINCUBATION): inactive; negative | mutagenic call [6]: inactive; negative | mutagenic call (Test System: AMES SALMONELLA TYPHIMURIUM, Strain/Indicator: TA1537, Metabolic Activation: RAT, LIVER, S-9, AROCLOR 1254 (10%), Method: PREINCUBATION): inactive; negative
